Structures are written as SMILES.

This test has as its target T1, human CGRP receptor (Homo sapiens, UniProt O60894+Q16602).
T1 construct: SK-N-MC cells that endogenously express the human CGRP receptor; endogenous in cells; host or cells: SK-N-MC cells (membrane homogenates)
In words: Radioligand binding assay, [125I]-CGRP competition on SK-N-MC cell homogenates. Particulars: Binding data, [125I]-CGRP 40 pM, room temperature. The procedure: Tissue culture. SK-N-MC cells were grown at 37° C. in 5% CO2 as a monolayer in medium consisting of MEM with Earle's salts and L-glutamine (Gibco) supplemented with 10% fetal bovine serum (Gibco).
Radioligand binding assays. Cells were rinsed twice with phosphate-buffered saline (155 mM NaCl, 3.3 mM Na2HPO4, 1.1 mM KH2PO4, pH 7.4), and incubated for 5-10 min. at 4° C. in hypotonic lysis buffer consisting of 10 mM Tris (pH 7.4) and 5 mM EDTA. Cells were transferred from plates to polypropylene tubes (16×100 mm), homogenized and centrifuged at 32,000×g for 30 min. Pellets were resuspended in buffer consisting of 50 mM Tris (pH 7.4) and 1 mM EDTA, homogenized, and centrifuged again at 32,000×g for 30 min. Pellets were resuspended in 100 mM Tris-Cl pH 7.5, 10 mM MgCl2, 0.1% mammalian protease inhibitor cocktail (Sigma) and stored at −80° C. until needed. On the day of an experiment, homogenates were thawed and homogenized again. Binding of [^125I]-CGRP (NEN) was carried out in buffer containing 50 mM Tris-Cl pH 7.5, 5 mM MgCl2, 0.5% BSA. Homogenates (3.5 μg protein/well) were incubated with competitor compounds (solubilized in 100% DMSO at 100× their final assay concentrations) for one hour at room temperature. Then [^125I]-CGRP was added (40 pM final concentration) and the reaction incubated for one additional hour at room temperature. Assays were stopped by addition of cold wash buffer (20 mM Tris-Cl pH 7.5, 0.1% BSA) immediately followed by filtration over glass fiber filters (Whatman GF/B) previously soaked in 0.5% PEI. Non-specific binding was defined with 100 nM CGRP.
Consider `CC(=O)c1ccc(NC(=O)N2CCC(=O)N3[C@@H]2CN(CCc2cccc(F)c2)C(=O)[C@@H]3CC[S+](C)[O-])cc1` (mixture of isomers) [Compound 42, (6S,9aS)-8-[2-(3-Fluoro-phenyl)-ethyl]-6-(2-methanesulfinyl-ethyl)-4,7-dioxo-hexahydro-pyrazino [1,2-a]pyrimidine-1-carboxylic acid (4-acetyl-phenyl)-amide], for which the IC50 is 0.778 µM.
`CCSCC1C(=O)N(CCc2cccc(F)c2)C[C@@H]2N(C(=O)Nc3ccc(C(C)=O)cc3)CCC(=O)N12` (stereo in doubt) [Compound 35, (6S,9aS)-6-Ethylsulfanylmethyl-8-[2-(3-fluoro-phenyl)-ethyl]-4,7-dioxo-hexahydro-pyrazino[1,2-a]pyrimidine-1-carboxylic acid (4-acetyl-phenyl)-amide] showed an IC50 of 0.244 µM.
In turn, `CSCC1C(=O)N(CCc2cccc(F)c2)C[C@@H]2N(C(=O)Nc3ccc(C(C)=O)cc3)CCC(=O)N12` (stereo in doubt) [Compound 37, (6S,9aS)-8-[2-(3-Fluoro-phenyl)-ethyl]-6-methylsulfanylmethyl-4,7-dioxo-hexahydro-pyrazino[1,2-a]pyrimidine-1-carboxylic acid (4-acetyl-phenyl)-amide] showed an IC50 of 0.704 µM.
The molecule `CC(=O)c1ccc(NC(=O)N2CCC(=O)N3C(CSCc4ccccc4)C(=O)N(CCc4cccc(F)c4)C[C@H]23)cc1` (stereo in doubt) [Compound 41, (6S,9aS)-6-Benzylsulfanylmethyl-8-[2-(3-fluoro-phenyl)-ethyl]-4,7-dioxo-hexahydro-pyrazino [1,2-a]pyrimidine-1-carboxylic acid (4-acetyl-phenyl)-amide] showed an IC50 of 0.237 µM.
`CC(=O)c1ccc(NC(=O)N2CCC(=O)N3C(C[S+]([O-])Cc4ccccc4)C(=O)N(CCc4cccc(F)c4)C[C@H]23)cc1` (stereo in doubt) [Compound 44, (6S,9aS)-8-[2-(3-Fluoro-phenyl)-ethyl]-4,7-dioxo-6-phenylmethanesulfinylmethyl-hexahydro-pyrazino[1,2-a]pyrimidine-1-carboxylic acid (4-acetyl-phenyl)-amide] had an IC50 of 3.44 µM.
On to `CC(=O)c1ccc(NC(=O)N2CCC(=O)N3C(CS(=O)(=O)Cc4ccccc4)C(=O)N(CCc4cccc(F)c4)C[C@H]23)cc1` (stereo in doubt) [Compound 45, (6S,9aS)-8-[2-(3-Fluoro-phenyl)-ethyl]-4,7-dioxo-6-phenylmethanesulfonylmethyl-hexahydro-pyrazino[1,2-a]pyrimidine-1-carboxylic acid (4-acetyl-phenyl)-amide], for which the IC50 is 1.94 µM.
For `CC[C@H](C)[C@H]1C(=O)N(CCc2cccc(F)c2)C[C@@H]2N(C(=O)Nc3ccc(C(C)=O)cc3)CCC(=O)N12` (stereo in doubt) [Compound 47, (6S,9aS)-6-(1R-Methyl-propyl)-8-[2-(3-fluoro-phenyl)-ethyl]-(S,S)-4,7-dioxo-hexahydro-pyrazino[1,2-a]pyrimidine-1-carboxylic acid (4-acetyl-phenyl)-amide], the IC50 came out at 0.192 µM.
Molecule `CC(=O)c1ccc(NC(=O)N2CCC(=O)N3[C@@H](C4CCCCC4)C(=O)N(CCc4ccccc4)C[C@H]23)cc1` [Compound 1, (6S,9aS)-6-Cyclohexyl-4,7-dioxo-8-phenethyl-hexahydro-pyrazino[1,2-a]pyrimidine-1-carboxylic acid (4-acetyl-phenyl)-amide] displayed an IC50 of 0.08 µM.
As to `CS(=O)(=O)c1ccc(NC(=O)N2CCC(=O)N3[C@@H](C4CCCCC4)C(=O)N(CCc4ccccc4)C[C@H]23)cc1` [Compound 17, (6S,9aS)-6-Cyclohexyl-4,7-dioxo-8-phenethyl-hexahydro-pyrazino[1,2a]pyrimidine-1-carboxylic acid (4-methanesulfonyl-phenyl)-amide], the IC50 is 0.417 µM.
In the case of `C[S+]([O-])c1ccc(NC(=O)N2CCC(=O)N3[C@@H](C4CCCCC4)C(=O)N(CCc4ccccc4)C[C@H]23)cc1` (stereo partly drawn) [Compound 18, (6S,9aS)-6-Cyclohexyl-4,7-dioxo-8-phenethyl-hexahydro-pyrazino[1,2a]pyrimidine-1-carboxylic acid (4-methanesulfinyl-phenyl)-amide], the half-inhibitory concentration (IC50) came to 0.293 µM.
The value for `CSc1ccc(NC(=O)N2CCC(=O)N3[C@@H](C4CCCCC4)C(=O)N(CCc4ccccc4)C[C@H]23)cc1` [Compound 19, (6S,9aS)-6-Cyclohexyl-4,7-dioxo-8-phenethyl-hexahydro-pyrazino[1,2-a]pyrimidine-1-carboxylic acid (4-methylsulfanyl-phenyl)-amide] was 8 µM; that for `CC(=O)c1ccc(NC(=O)N2CCC(=O)N3[C@@H](C(C)C)C(=O)N(CCc4cccc(F)c4)C[C@H]23)cc1` [Compound 20, (6S,9aS)-8-[2-(3-Fluoro-phenyl)-ethyl]-6-isopropyl-4,7-dioxo-hexahydro-pyrazino[1,2-a]pyrimidine-1-carboxylic acid (4-acetyl-phenyl)-amide] was 0.907 µM; that for `CC[C@H](C)[C@H]1C(=O)N(CCc2cccc(F)c2)C[C@@H]2N(C(=O)Nc3ccc(C(C)=O)cc3)CCC(=O)N12` [Compound 21, (6S,9aS)-6-(1S-Methyl-propyl)-8-[2-(3-fluoro-phenyl)-ethyl]-4,7-dioxo-hexahydro-pyrazino[1,2-a]pyrimidine-1-carboxylic acid (4-acetyl-phenyl)-amide] was 0.233 µM.
The value for `CC(=O)c1ccc(NC(=O)N2CCC(=O)N3[C@@H]2CN(CCc2cccc(F)c2)C(=O)[C@@H]3Cc2ccccc2)cc1` [Compound 22, (6S,9aS)-6-Benzyl-8-[2-(3-fluoro-phenyl)-ethyl]-4,7-dioxo-hexahydro-pyrazino[1,2-a]pyrimidine-1-carboxylic acid (4-acetyl-phenyl)-amide] was 2.19 µM; that for `CC(=O)c1ccc(NC(=O)N2CCC(=O)N3[C@@H]2CN(CCc2cccc(F)c2)C(=O)[C@@H]3CC(C)C)cc1` [Compound 23, (6S,9aS)-8-[2-(3-Fluoro-phenyl)-ethyl]-6-isobutyl-4,7-dioxo-hexahydro-pyrazino[1,2-a]pyrimidine-1-carboxylic acid (4-acetyl-phenyl)-amide] was 0.184 µM.
`CSCC[C@H]1C(=O)N(CCc2cccc(F)c2)C[C@@H]2N(C(=O)Nc3ccc(C(C)=O)cc3)CCC(=O)N21` [Compound 24, (6S,9aS)-8-[2-(3-Fluoro-phenyl)-ethyl]-6-(2-methylsulfanyl-ethyl)-4,7-dioxo-hexahydro-pyrazino[1,2-a]pyrimidine-1-carboxylic acid (4-acetyl-phenyl)-amide] yielded an IC50 of 0.213 µM.
Turning to `CC(=O)c1ccc(NC(=O)N2CCC(=O)N3[C@@H]2CN(CCc2cccc(F)c2)C(=O)[C@@H]3C)cc1` [Compound 25, (6S,9aS)-8-[2-(3-Fluoro-phenyl)-ethyl]-6-methyl-4,7-dioxo-hexahydro-pyrazino[1,2-a]pyrimidine-1-carboxylic acid (4-acetyl-phenyl)-amide], the IC50 came out at 30 µM.
Take `CCCC[C@H]1C(=O)N(CCc2cccc(F)c2)C[C@@H]2N(C(=O)Nc3ccc(C(C)=O)cc3)CCC(=O)N21` [Compound 26, (6S,9aS)-6-Butyl-8-[2-(3-fluoro-phenyl)-ethyl]-4,7-dioxo-hexahydro-pyrazino[1,2-a]pyrimidine-1-carboxylic acid (4-acetyl-phenyl)-amide]: the IC50 is 0.117 µM.
